How the values were obtained:
[1] = system: voltage-gated calcium channel α2δ subunits; conditions: cited from earlier work
[2] = system: CKCS symptomatic for CLM/SM; conditions: cited from earlier work
[3] = system: dogs with CLM/SM (neuropathic pain); test: Pilot study and validation of the Questionnaire (CHASE score) in CLM/SM dogs; format: in vivo, dog
Experimental: Please think about how your dog has behaved over the past week and use the scale to tell us how well the phrases describe your dog or what he/she is doing.
Summary values for untransformed and unweighted scores across the five final questions are presented below.
Intervention by a board-certified neurologist and prescription of pregabalin at 5-10 mg/kg twice daily relieved clinical signs and reduced CHASE scores to within the normal range, indicating responsiveness of the questionnaire to standard-of-care medical treatment. […] Using the Questionnaire to solicit owner feedback on disease severity and its impacts on affect and quality of life in this manner, owners and the veterinary neurologist concurred on treatment effects in this 100% of cases. This is to be expected given the potency of pregabalin in the treatment of neuropathic pain; however, no owner assessment tool has ever been reported to detect said effects so sensitively. For example, in a randomized controlled study by Thofner et al. (2020), even the very high dose range of 13 to 19 mg/kg pregabalin yielded concurrence between veterinarian and owner in only 52% of assessments of dogs with CLM/SM.

[4] = system: dogs with CLM/SM; conditions: affected dogs, placebo-controlled treatment trial; cited from earlier work

CC(C)C[C@H](CN)CC(=O)O [pregabalin]
potency and binding affinity compared with gabapentin [1]: better potency and binding affinity than gabapentin | effect size ([2]; CKCS symptomatic for CLM/SM, crossover placebo-controlled): 0.45 | numerical rating scale (NRS) mean score during treatment ([2]; liquid formulation of pregabalin, placebo phase 4.24): 3.17 units | treated dogs exhibiting improvements of at least 5 points ([3]; 8 treated dogs, pregabalin 5-10 mg/kg twice daily): 100% | Questionnaire (CHASE) score, Mean ([3]; Treated CLM/SM dogs, n=8, untransformed and unweighted scores across the five final questions, pregabalin 5-10 mg/kg twice daily): 4.4 | improvements in symptom severity on the Questionnaire ([3]; each of the 8 treated dogs, pregabalin 5-10 mg/kg twice daily): at least 5 points | effect size ([3]; equivalent to improvement of at least 5 points on the Questionnaire): ≥ 1.04 | phantom scratching [4]: effectively reduce phantom scratching
